Data reported in the supplement of paper PMC10307832.

Experiments:
Test in all cases: relative viability (nuclei count vs DMSO), 5 days (fraction); higher = more cells survive
NCI-H1651 = tested on: NCI-H1651
Outline: (§1)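 Lung cancer cell lines were seeded in 1536-well plates and dosed by pin tool the next day, with either a single drug or a fixed anchor-drug dose combined with five library-drug doses (not always all listed) spaced in √10 steps. Five days later, one step fixed the cells and stained their nuclei (final 0.05% Triton X-100, 1% formaldehyde, 1 ug/ml Hoechst), and nuclei were counted on 4× images. Relative viability is the nuclei count in treated wells divided by the count in vehicle wells, and each value is the median of duplicate plates.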

NCI-H1792 = tested on: NCI-H1792
Outline: as §1

NCI-H727 = tested on: NCI-H727
Outline: as §1

PC-14 = tested on: PC-14
Outline: as §1

NCI-H596 = tested on: NCI-H596
Outline: as §1

NCI-H661 = tested on: NCI-H661
Outline: as §1

NCI-H322M = tested on: NCI-H322M
Outline: as §1

NCI-H460 = tested on: NCI-H460
Outline: as §1

NCI-H1755 = tested on: NCI-H1755
Outline: as §1

LXF-289 = tested on: LXF-289
Outline: as §1

NCI-H3122 = tested on: NCI-H3122
Outline: as §1

NCI-H520 = tested on: NCI-H520
Outline: as §1

RERF-LC-KJ = tested on: RERF-LC-KJ
Outline: as §1

NCI-H441 = tested on: NCI-H441
Outline: as §1

LCLC-103H = tested on: LCLC-103H
Outline: as §1

SK-MES-1 = tested on: SK-MES-1
Outline: as §1

NCI-H2347 = tested on: NCI-H2347
Outline: as §1

NCI-H1355 = tested on: NCI-H1355
Outline: as §1

NCI-H1915 = tested on: NCI-H1915
Outline: as §1

NCI-H1563 = tested on: NCI-H1563
Outline: as §1

SW 900 = tested on: SW 900
Outline: as §1

NCI-H522 = tested on: NCI-H522
Outline: as §1

CC(=O)O[C@@]12CO[C@@H]1C[C@H](O)[C@@]1(C)C(=O)[C@H](O)C3=C(C)[C@@H](OC(=O)[C@H](O)[C@@H](NC(=O)OC(C)(C)C)c4ccccc4)C[C@@](O)([C@@H](OC(=O)c4ccccc4)[C@H]21)C3(C)C [Docetaxel] + N=C(N)NC(=N)NCCc1ccccc1 [Phenformin] (partner 250 µM)
relative viability (NCI-H1651; first compound 0.0002 µM): 0.266 | relative viability (NCI-H1651; first compound 0.000632 µM): 0.342 | relative viability (NCI-H1651; first compound 0.002 µM): 0.194 | relative viability (NCI-H1651; first compound 0.006325 µM): 0.087 | relative viability (NCI-H1651; first compound 0.02 µM): 0.0897 | relative viability (NCI-H1792; first compound 0.0002 µM): 0.221 | relative viability (NCI-H1792; first compound 0.000632 µM): 0.23 | relative viability (NCI-H1792; first compound 0.002 µM): 0.0848 | relative viability (NCI-H1792; first compound 0.006325 µM): 0.126 | relative viability (NCI-H1792; first compound 0.02 µM): 0.0575 | relative viability (NCI-H727; first compound 0.0002 µM): 0.49 | relative viability (NCI-H727; first compound 0.000632 µM): 0.601 | relative viability (NCI-H727; first compound 0.002 µM): 0.457 | relative viability (NCI-H727; first compound 0.006325 µM): 0.472 | relative viability (NCI-H727; first compound 0.02 µM): 0.354 | relative viability (PC-14; first compound 0.0002 µM): 0.575 | relative viability (PC-14; first compound 0.000632 µM): 0.212 | relative viability (PC-14; first compound 0.002 µM): 0.129 | relative viability (PC-14; first compound 0.006325 µM): 0.0718 | relative viability (PC-14; first compound 0.02 µM): 0.0382 | relative viability (NCI-H596; first compound 0.0002 µM): 0.827 | relative viability (NCI-H596; first compound 0.000632 µM): 0.773 | relative viability (NCI-H596; first compound 0.002 µM): 0.635 | relative viability (NCI-H596; first compound 0.006325 µM): 0.438 | relative viability (NCI-H596; first compound 0.02 µM): 0.235 | relative viability (NCI-H661; first compound 0.0002 µM): 0.334 | relative viability (NCI-H661; first compound 0.000632 µM): 0.32 | relative viability (NCI-H661; first compound 0.002 µM): 0.317 | relative viability (NCI-H661; first compound 0.006325 µM): 0.267 | relative viability (NCI-H661; first compound 0.02 µM): 0.221 | relative viability (NCI-H322M; first compound 0.0002 µM): 0.807 | relative viability (NCI-H322M; first compound 0.000632 µM): 0.765 | relative viability (NCI-H322M; first compound 0.002 µM): 0.656 | relative viability (NCI-H322M; first compound 0.006325 µM): 0.478 | relative viability (NCI-H322M; first compound 0.02 µM): 0.332 | relative viability (NCI-H460; first compound 0.0002 µM): 0.481 | relative viability (NCI-H460; first compound 0.000632 µM): 0.351 | relative viability (NCI-H460; first compound 0.002 µM): 0.0311 | relative viability (NCI-H460; first compound 0.006325 µM): 0.0221 | relative viability (NCI-H460; first compound 0.02 µM): 0.0125 | relative viability (NCI-H1755; first compound 0.0002 µM): 0.621 | relative viability (NCI-H1755; first compound 0.000632 µM): 0.577 | relative viability (NCI-H1755; first compound 0.002 µM): 0.411 | relative viability (NCI-H1755; first compound 0.006325 µM): 0.434 | relative viability (NCI-H1755; first compound 0.02 µM): 0.36 | relative viability (LXF-289; first compound 0.0002 µM): 0.521 | relative viability (LXF-289; first compound 0.000632 µM): 0.42 | relative viability (LXF-289; first compound 0.002 µM): 0.127 | relative viability (LXF-289; first compound 0.006325 µM): 0.0915 | relative viability (LXF-289; first compound 0.02 µM): 0.0828 | relative viability (NCI-H3122; first compound 0.0002 µM): 0.368 | relative viability (NCI-H3122; first compound 0.000632 µM): 0.345 | relative viability (NCI-H3122; first compound 0.002 µM): 0.261 | relative viability (NCI-H3122; first compound 0.006325 µM): 0.152 | relative viability (NCI-H3122; first compound 0.02 µM): 0.139 | relative viability (NCI-H520; first compound 0.0002 µM): 0.585 | relative viability (NCI-H520; first compound 0.000632 µM): 0.604 | relative viability (NCI-H520; first compound 0.002 µM): 0.37 | relative viability (NCI-H520; first compound 0.006325 µM): 0.255 | relative viability (NCI-H520; first compound 0.02 µM): 0.148 | relative viability (RERF-LC-KJ; first compound 0.0002 µM): 0.454 | relative viability (RERF-LC-KJ; first compound 0.000632 µM): 0.405 | relative viability (RERF-LC-KJ; first compound 0.002 µM): 0.238 | relative viability (RERF-LC-KJ; first compound 0.006325 µM): 0.209 | relative viability (RERF-LC-KJ; first compound 0.02 µM): 0.195 | relative viability (NCI-H441; first compound 0.0002 µM): 0.833 | relative viability (NCI-H441; first compound 0.000632 µM): 0.889 | relative viability (NCI-H441; first compound 0.002 µM): 0.315 | relative viability (NCI-H441; first compound 0.006325 µM): 0.281 | relative viability (NCI-H441; first compound 0.02 µM): 0.197 | relative viability (LCLC-103H; first compound 0.0002 µM): 0.347 | relative viability (LCLC-103H; first compound 0.000632 µM): 0.344 | relative viability (LCLC-103H; first compound 0.002 µM): 0.308 | relative viability (LCLC-103H; first compound 0.006325 µM): 0.282 | relative viability (LCLC-103H; first compound 0.02 µM): 0.248 | relative viability (SK-MES-1; first compound 0.0002 µM): 0.664 | relative viability (SK-MES-1; first compound 0.000632 µM): 0.667 | relative viability (SK-MES-1; first compound 0.002 µM): 0.364 | relative viability (SK-MES-1; first compound 0.006325 µM): 0.273 | relative viability (SK-MES-1; first compound 0.02 µM): 0.179 | relative viability (NCI-H2347; first compound 0.0002 µM): 0.496 | relative viability (NCI-H2347; first compound 0.000632 µM): 0.303 | relative viability (NCI-H2347; first compound 0.002 µM): 0.295 | relative viability (NCI-H2347; first compound 0.006325 µM): 0.201 | relative viability (NCI-H2347; first compound 0.02 µM): 0.256 | relative viability (NCI-H1355; first compound 0.0002 µM): 0.463 | relative viability (NCI-H1355; first compound 0.000632 µM): 0.402 | relative viability (NCI-H1355; first compound 0.002 µM): 0.385 | relative viability (NCI-H1355; first compound 0.006325 µM): 0.287 | relative viability (NCI-H1355; first compound 0.02 µM): 0.217 | relative viability (NCI-H1915; first compound 0.0002 µM): 0.364 | relative viability (NCI-H1915; first compound 0.000632 µM): 0.312 | relative viability (NCI-H1915; first compound 0.002 µM): 0.21 | relative viability (NCI-H1915; first compound 0.006325 µM): 0.147 | relative viability (NCI-H1915; first compound 0.02 µM): 0.116 | relative viability (NCI-H1563; first compound 0.0002 µM): 0.619 | relative viability (NCI-H1563; first compound 0.000632 µM): 0.683 | relative viability (NCI-H1563; first compound 0.002 µM): 0.661 | relative viability (NCI-H1563; first compound 0.006325 µM): 0.582 | relative viability (NCI-H1563; first compound 0.02 µM): 0.479 | relative viability (SW 900; first compound 0.0002 µM): 0.389 | relative viability (SW 900; first compound 0.000632 µM): 0.235 | relative viability (SW 900; first compound 0.002 µM): 0.262 | relative viability (SW 900; first compound 0.006325 µM): 0.167 | relative viability (SW 900; first compound 0.02 µM): 0.0976 | relative viability (NCI-H522; first compound 0.0002 µM): 0.611 | relative viability (NCI-H522; first compound 0.000632 µM): 0.433 | relative viability (NCI-H522; first compound 0.002 µM): 0.527 | relative viability (NCI-H522; first compound 0.006325 µM): 0.55 | relative viability (NCI-H522; first compound 0.02 µM): 0.471
